# From paper PMC9225712, “Rational design of biodegradable sulphonamide candidates treating septicaemia by synergistic dual inhibition of COX-2/PGE2 axis and DHPS enzyme” (Journal of Enzyme Inhibition and Medicinal Chemistry, 2022)
# How the values were obtained:
# [1] = test system: Streptococcus mutans (RCMB 0100172); experiment: Inhibition zone, agar cup diffusion; conditions: RCMB0100172, 24 h, read-out: inhibition zones (IZ) S. mutans
# [2] = test system: Bacillus subtilis (RCMB 0100162); experiment: Inhibition zone, agar cup diffusion; conditions: RCMB0100162, 24 h, read-out: inhibition zones (IZ) B. subtillis
# [3] = test system: Staphylococcus aureus (RCMB 0100183); experiment: Inhibition zone, agar cup diffusion; conditions: RCMB0100183, 24 h, read-out: inhibition zones (IZ) S. aureus
# [4] = test system: Salmonella typhi (RCMB 0100104); experiment: Inhibition zone, agar cup diffusion; type: cell-based; conditions: Salmonella enterica, 24 h, read-out: inhibition zones (IZ) S. typhi
# [5] = test system: Pseudomonas aeruginosa (RCMB 0100243); experiment: Inhibition zone, agar cup diffusion; conditions: RCMB0100243, 24 h, read-out: inhibition zones (IZ) P.aeruginosa
# [6] = test system: Proteus vulgaris (RCMB 010085); experiment: Inhibition zone, agar cup diffusion; conditions: RCMB010085, 24 h, read-out: inhibition zones (IZ) P. vulgaris
# human recombinant COX-2 = molecular target: T1, human recombinant COX-2 (Homo sapiens, UniProt P35354); experiment: In vitro COX-2 enzymatic assay (Cayman kit 560131); conditions: for SI COX-1/COX-2: COX-2 selectivity index: COX-1 IC50/COX-2 IC50
# T1 sequence (P35354 18-604): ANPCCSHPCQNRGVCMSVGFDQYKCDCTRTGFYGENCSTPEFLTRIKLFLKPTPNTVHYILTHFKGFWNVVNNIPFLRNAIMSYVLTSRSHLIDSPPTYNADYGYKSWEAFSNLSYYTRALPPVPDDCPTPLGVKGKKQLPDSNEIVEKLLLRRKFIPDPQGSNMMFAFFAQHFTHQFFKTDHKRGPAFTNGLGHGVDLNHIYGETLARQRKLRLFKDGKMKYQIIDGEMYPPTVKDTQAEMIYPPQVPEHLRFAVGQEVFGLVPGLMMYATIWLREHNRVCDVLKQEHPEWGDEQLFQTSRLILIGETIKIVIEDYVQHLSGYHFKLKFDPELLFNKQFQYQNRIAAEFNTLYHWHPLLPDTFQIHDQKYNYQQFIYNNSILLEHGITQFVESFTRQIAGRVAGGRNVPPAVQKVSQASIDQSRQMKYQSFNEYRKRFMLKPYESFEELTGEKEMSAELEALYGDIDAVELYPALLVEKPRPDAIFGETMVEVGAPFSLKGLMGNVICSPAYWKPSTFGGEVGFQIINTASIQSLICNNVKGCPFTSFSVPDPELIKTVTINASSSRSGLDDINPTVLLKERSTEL
# [7] = test system: Shigella dysenteriae (RCMB 0100542); experiment: Inhibition zone, agar cup diffusion; type: cell-based; conditions: RCMB0100542, 24 h, read-out: inhibition zones (IZ) S. dysenteriae
# [8] = test system: Staphylococcus epidermidis (RCMB 0100183); experiment: Inhibition zone, agar cup diffusion; conditions: RCMB0100183, 24 h, read-out: inhibition zones (IZ) S. epidermidis
# ovine COX-1 = molecular target: T2, ovine COX-1 (Ovis aries, UniProt P05979); experiment: In vitro COX-1 enzymatic assay (Cayman kit 560131); type: biochemical; conditions: Mean ± SEM of triplicate determinations
# T2 construct: purchased Cayman Chemicals Inc. 560131
# T2 sequence (P05979 25-600): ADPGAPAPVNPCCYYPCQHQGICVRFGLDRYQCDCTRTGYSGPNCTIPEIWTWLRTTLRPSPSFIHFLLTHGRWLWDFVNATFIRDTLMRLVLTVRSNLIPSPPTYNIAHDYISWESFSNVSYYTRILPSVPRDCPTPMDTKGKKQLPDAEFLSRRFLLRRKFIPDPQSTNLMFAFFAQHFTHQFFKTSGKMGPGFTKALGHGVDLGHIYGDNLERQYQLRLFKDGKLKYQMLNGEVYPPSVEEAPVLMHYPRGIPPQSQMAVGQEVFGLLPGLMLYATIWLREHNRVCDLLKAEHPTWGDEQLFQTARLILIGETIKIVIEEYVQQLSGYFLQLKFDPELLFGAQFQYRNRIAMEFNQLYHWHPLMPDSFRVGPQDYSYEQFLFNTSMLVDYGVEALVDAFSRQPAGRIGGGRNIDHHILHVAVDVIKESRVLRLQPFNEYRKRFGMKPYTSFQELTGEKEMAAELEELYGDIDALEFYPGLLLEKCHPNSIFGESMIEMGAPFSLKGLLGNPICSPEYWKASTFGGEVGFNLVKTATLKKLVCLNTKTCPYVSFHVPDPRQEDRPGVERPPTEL
# [9] = test system: Escherichia coli (RCMB 010052); experiment: Inhibition zone, agar cup diffusion; conditions: RCMB010052, 24 h, read-out: inhibition zones (IZ) E.coli
Compound,zone of inhibition at 1000 µg/mL [1],zone of inhibition at 1000 µg/mL [2],zone of inhibition at 1000 µg/mL [3],zone of inhibition at 1000 µg/mL [4],zone of inhibition at 1000 µg/mL [5],zone of inhibition at 1000 µg/mL [6],IC50 (human recombinant COX-2),SI COX-1/COX-2 (human recombinant COX-2),zone of inhibition at 1000 µg/mL [7],zone of inhibition at 1000 µg/mL [8],IC50 (ovine COX-1),zone of inhibition at 1000 µg/mL [9]
"NS(=O)(=O)c1ccc(/N=N/c2ccc(O)c(C(=O)N3CCCCC3)c2)cc1 [Compound 5h, 4-((4-Hydroxy-3-(piperidine-1-carbonyl)phenyl)diazenyl) benzenesulfonamide]",29 mm,20 mm,22 mm,18 mm,16 mm,19 mm,0.14 µM,58.6,24 mm,29 mm,8.2 ± 0.12 µM,14 mm
"CCCCNC(=O)c1cc(/N=N/c2ccc(S(=O)(=O)Nc3nccc(C)n3)cc2)ccc1O [Compound 5d, N-Butyl-2-hydroxy-5-((4-(N-(4-methylpyrimidin-2yl)sulfamoyl)phenyl)diazenyl) benzamide]",28 mm,20 mm,28 mm,16 mm,18 mm,19 mm,0.09 ± 0.001 µM,116.5,26 mm,32 mm,10.6 ± 0.08 µM,16 mm
"O=C(NCc1ccccc1)c1cc(/N=N/c2ccc(S(=O)(=O)Nc3nccs3)cc2)ccc1O [Compound 5f, N-Benzyl-2-hydroxy-5-((4-(N-(thiazol-2-yl)sulfamoyl)phenyl)diazenyl) benzamide]",27 mm,17 mm,24 mm,16 mm,16 mm,17 mm,0.11 ± 0.003 µM,88.2,25 mm,36 mm,9.7 ± 0.06 µM,16 mm
"O=C(NCc1ccccc1)c1cc(/N=N/c2ccc(S(=O)(=O)Nc3ncccn3)cc2)ccc1O [Compound 5g, N-Benzyl-2-hydroxy-5-((4-(N-(pyrimidin-2-yl)sulfamoyl)phenyl)diazenyl) benzamide]",30 mm,20 mm,26 mm,13 mm,14 mm,17 mm,0.1 ± 0.0003 µM,109.4,26 mm,32 mm,10.5 ± 0.08 µM,16 mm
"C[C@H]1COc2c(N3CCN(C)CC3)c(F)cc3c(=O)c(C(=O)O)cn1c23 [Levofloxacin, levofloxacin, reference compound]",–,–,–,11 mm,8 mm,15 mm,–,–,20 mm,–,–,11 mm
"CCCCNC(=O)c1cc(/N=N/c2ccc(S(=O)(=O)Nc3ncccn3)cc2)ccc1O [Compound 5c, N-Butyl-2-hydroxy-5-((4-(N-(pyrimidin-2-yl)sulfamoyl)phenyl)diazenyl) benzamide]",31 mm,19 mm,29 mm,13 mm,16 mm,17 mm,0.08 ± 0.0003 µM,145.5,25 mm,30 mm,11.2 ± 0.08 µM,16 mm
"CCCCNC(=O)c1cc(/N=N/c2ccc(S(N)(=O)=O)cc2)ccc1O [Compound 5a, N-Butyl-2-hydroxy-5-((4-sulfamoylphenyl)diazenyl) benzamide]",29 mm,17 mm,26 mm,15 mm,14 mm,18 mm,0.11 ± 0.0003 µM,87.3,25 mm,33 mm,9.6 ± 0.06 µM,14 mm
"NS(=O)(=O)c1ccc(/N=N/c2ccc(O)c(C(=O)NCc3ccccc3)c2)cc1 [Compound 5e, N-Benzyl-2-hydroxy-5-((4-sulfamoylphenyl)diazenyl) benzamide]",30 mm,16 mm,32 mm,16 mm,18 mm,21 mm,0.12 ± 0.003 µM,69.2,25 mm,35 mm,8.3 ± 0.06 µM,16 mm
"CC1(C)S[C@@H]2[C@H](NC(=O)[C@H](N)c3ccccc3)C(=O)N2[C@H]1C(=O)O [Ampicillin, reference compound]",30 mm,15 mm,30 mm,–,–,–,–,–,–,32 mm,–,–
"NS(=O)(=O)c1ccc(/N=N/c2ccc(O)c(C(=O)N3CCOCC3)c2)cc1 [Compound 5l, 4-((4-Hydroxy-3-(morpholine-4-carbonyl)phenyl)diazenyl) benzenesulfonamide]",26 mm,20 mm,18 mm,17 mm,14 mm,19 mm,0.08 ± 0.001 µM,134.2,26 mm,32 mm,10.2 ± 0.08 µM,14 mm
